In US6407075B1, “Fatty acid treatment” (priority 1996, dated 2002):

What was measured:
[1] = system: toxic side effects of chemotherapy; assay: Clinical observations in cancer patients receiving conventional chemotherapy plus fatty acids; type: in vivo, human patients; details: patients receiving conventional chemotherapy and the fatty acid at the same time
Description: In many instances, the fatty acids have been given to patients who at that same time were receiving conventional chemotherapy for their cancer.

[2] = system: side effects of chemotherapy; assay: Case histories of patients given fatty acid derivatives with chemotherapy; type: in vivo, human patients
Description: The following histories illustrate use of the invention
This chemotherapy regime normally causes severe vomiting and nausea, marked malaise and anorexia.
C. […] The chemotherapy regime normally causes nausea, vomiting, mucositis and white cell suppression.
This normally causes nausea, vomiting, white cell suppression and mucositis.

[3] = system: cardiotoxicity of doxorubicin; assay: Cardiotoxicity of doxorubicin in mice pre-treated with fatty acids; type: in vivo; details: 20 mg doxorubicin intraperitoneally, fatty acid pre-treatment
[4] = system: lung toxicity of bleomycin; assay: Lung toxicity (fibrosis) of intratracheal bleomycin in animals; type: in vivo; details: bleomycin into the trachea, about 5-10 IU per kg body weight, 2-4 weeks
Method: We have recently supported the clinical observations by animal studies on the cardiotoxicity of doxorubicin and the lung toxicity of bleomycin. When 20 mg of doxorubicin (DOX) is given intraperitoneally to mice, the animals usually die within two weeks because of cardiac damage. When animals were pre-treated with LA or with GLA or with EPA or with DHA in various doses and chemical forms, the death rate to the same dose of doxorubicin was reduced to between 20% and 60% depending on the dose and the precise chemical administered. […] Similarly, bleomycin introduced into the trachea of animals under anaesthesia at a dose of about 5-10 IU per kg body weight, within 2-4 weeks the animals develop severe lung fibrosis which is very similar to the fibrosis which occurs in human patients treated with bleomycin. […] In a third animal study, the anti-cancer streptozotocin was used. A major effect of this compound is to damage the islet cells of the pancreas and consequently to lead to insulin dependent diabetes.

[5] = system: streptozotocin damage to the islet cells of the pancreas; assay: Streptozotocin-induced diabetes in rats; type: in vivo; details: fatty acid administered prior to streptozotocin
Description: In a third animal study, the anti-cancer streptozotocin was used. A major effect of this compound is to damage the islet cells of the pancreas and consequently to lead to insulin dependent diabetes.

[6] = case D, metastatic colon cancer, 5-fluorouracil, 3 g/day from two weeks before and during chemotherapy
[7] = case C, breast cancer, 'CMF' regime, 30 g cumulative intravenously, then 2 g/day oral

CC/C=C\C/C=C\C/C=C\C/C=C\C/C=C\C/C=C\CCC(=O)O [DHA, docosahexaenoic acid]
toxic side effects of chemotherapy [1]: substantially reduced

dilinoleoyl-monogammalinolenoyl-glycerol [DLMG]
general well-being ([2]; case A, glioblastoma patient, carmustine): felt well throughout
nausea ([2]; case A, glioblastoma patient, carmustine, given prior to and during the course): only very mild nausea

CC/C=C\C/C=C\C/C=C\C/C=C\C/C=C\CCCC(=O)OCC(COC(=O)CCC/C=C\C/C=C\C/C=C\C/C=C\C/C=C\CC)OC(=O)CCC/C=C\C/C=C\C/C=C\C/C=C\C/C=C\CC [triglyceride of eicosapentaenoic acid]
nausea and white cell suppression [2, 6]: less than expected
vomiting or mucositis [2, 6]: no vomiting or mucositis

CC/C=C\C/C=C\C/C=C\C/C=C\C/C=C\CCCC(=O)O [EPA, eicosapentaenoic acid]
toxic side effects of chemotherapy [1]: substantially reduced

CCCCC/C=C\C/C=C\C/C=C\CCCCC(=O)[O-].[Li+] [lithium salt of gammalinolenic acid]
general well-being ([2]; case B, Hodgkin's disease, 'MOPP' regime, 3 g per day orally): remained well and able to continue working
nausea ([2]; case B, Hodgkin's disease, 'MOPP' regime, 3 g per day orally from one week before and throughout chemotherapy): only mild nausea
nausea [2, 7]: only mild nausea
suppression of the white cell count [2, 7]: less than expected
vomiting or mucositis [2, 7]: no vomiting or mucositis

CCCCC/C=C\C/C=C\CCCCCCCC(=O)O [LA, linoleic acid]
reduction in cardiac weight characteristic of doxorubicin toxicity [3]: considerably attenuated
lung pathological changes and increased production of fibrous tissue [4]: almost entirely suppress
likelihood of the development of diabetes [5]: greatly reduced
toxic side effects of chemotherapy [1]: substantially reduced

CCCCC/C=C\C/C=C\C/C=C\CCCCC(=O)O [GLA, gamma-linolenic acid]
reduction in cardiac weight characteristic of doxorubicin toxicity [3]: considerably attenuated
lung pathological changes and increased production of fibrous tissue [4]: almost entirely suppress
likelihood of the development of diabetes [5]: greatly reduced
toxic side effects of chemotherapy [1]: substantially reduced
